In patent US7495028B2, “R-bambuterol, its preparation and therapeutic uses” (priority 2002, dated 2009):
Where a name gives a salt, the structure may show the parent alone. Marks after values point to notes of the source that are not given here.

How the values were obtained:
[1] = tested on: isolated guinea pig lung strip; test: Bronchodilating effect on isolated guinea pig lung strip pre-contracted by histamine; format: cell-based
Description: Test method: Guinea pigs (Dunlin-Hartley, ca. 400 g) were used. After anesthesia, the chest was opened and sections of lung tissue about 3 mm in width, were dissected quickly from a lower lobe with the longitudinal axis of the strip cut parallel to the bronchus. The strips were further divided into two thin strips with approximate dimension of 20×3×3 mm. With threads attached to each end, strips were mounted in organ baths containing aerated Krebs solution at 37° C. A load of between 0.5-1.0 g force was applied by gentle stretching, and the tissue was allowed to equilibrate for 60 min with the solution changed at 20 min intervals. The lung strips were pre-contracted by 10^−5 M histamine, then an equal volume of solution containing R-bambuterol or racemic bambuterol was added cumulatively into the organ bath. The contractions of the lung strips were measured isometrically with force-displacement transducers and recorded.
Based on the pharmacokinetic studies of racemic bambuterol hydrochloride, about 50% of absorbed bambuterol is hydrolyzed to terbutaline, the active-parent form, in plasma. There is little cholinesterase in the lung strip preparation, so neither the test compound nor racemic bambuterol has significant effects. In order to test the compound of invention in vitro on isolated guinea-pig lung tissue, R-bambuterol and racemic bambuterol were administrated orally to guinea pigs at a dose of 8 mg/kg. Four hours later, blood was collected from the animals, and the serum containing the active parent form of the test compounds were prepared. The concentration of the active parent form, i.e. terbutaline, in serum measured using BPLC, was 64-70 ng/ml in the animal treated with R-bambuterol and 62-69 ng/ml in the animal treated with racemic bambuterol. The serum containing the active form of test compound was then added into the organ in a certain volume, so that the final concentration of the active forms of test compounds was 0.25 ng/ml in the organ bath. Concentration-response relationships were obtained using a cumulative dose schedule by adding the same volume of the serum into the organ bath. The test using the serum containing the active form of racemic bambuterol was done in parallel with the test compound in the same manner as described above.

rats = test: Cardiovascular effects in anesthetized rats; format: in vivo; details: both, Sprague Dawley, rat, in vivo, 20 min
Source text: Test method: Rats (Sprague Dawley, 250-300 g) were randomized into two groups (n=6, equal sexes). After anesthesia, plastic tubing was introduced into a carotid artery of each animal and connected to pressure transducers to record mean artery pressure (MBP) and heart rate (HR). Another tube was introduced into the left ventricular chamber via the another carotid artery and connected to a pressure transducer. Left ventricular systolic pressure (LVSP) and the first order of differential of LVSP (dp/dt) as an index for inotropic effects were recorded. R-Bambuterol and racemic bambuterol hydrochloride were dissolved in saline and administrated intravenously at 30 mg/kg to each animal. The HR, MBP and Max dp/dt were measured before treatment (control) and after the treatments when the maximum response occurred, and 20 min after treatment as indication of recovery.

[2] = tested on: sensitized conscious guinea pigs exposed to aerosol ovalbumin; test: Protection against allergic bronchospasm in ovalbumin-sensitized conscious guinea pigs; format: in vivo, guinea pig
Description: Test method: Guinea pigs (Dunkin-Hartley strain, 200±10 g, equal sexes) were used in this study. Ovalbumin (5%) solution was injected into guinea pigs subcutaneously and intraperitoneally to sensitize the animals. Male and female sensitized animals were kept separately for 14 days, and food and water was available ad libitum. On day 14 after sensitization, animals were randomized into groups of 8 each. The animals were treated orally with saline (control) or various concentrations of R-bambuterol or racemic bambuterol in saline. Four hours after the treatment, each animal was restrained in a glass chamber. After stabilization the animal was exposed to an aerosol of ovalbumin generated by a nebulizer from a 5% solution of ovalbumine at a rate of 0.5 ml/min for a period of 15 seconds. The animal was removed from the chamber, and the behavior of the animal was monitored. The number of the sensitized animals which collapsed were counted, and the latency time, i.e. the time from the exposure to aerosol ovalbumin to the collapse of the animal, was recorded.

hyperlipidemia mice = test: Lipid lowering effects in Tyloxapol-induced hyperlipidemia mice; format: in vivo; details: for TG lipid level: plasma 24 hours after Tyloxapol
Description: Test method: Male and […] mice, Kunming strain, 35 each, weight 18-22 grams, were used. Food and water were available ad libitum. The animals were randomized into 7 groups (n=10). Groups of animals were administered orafly, via a stomach tube, vehicle (distilled water, two groups), R-bambuterol hydrochloride (10 mg/kg and 5 mg/kg), racemic bambuterol hydrochloride (10 mg/kg and 5 mg/kg) and simvastatin (10 mg/kg) once a day for four days. With the exception of one vehicle—treated group (as control), Tyloxapol (400 mg/kg, Sigma Chemical Co.) was injected into the peritoneal cavity of the mice of all groups immediately after the last treatment on the fourth day in order to induce hyperlipidemia. All the animals were fasted overnight prior to the injection of Tyloxapol. Blood samples were collected by cardiac puncture 24 hours after the injection of Tyloxapol. The blood samples were processed to plasma, and concentration of triglycerides (TG), cholesterol (CHO), high density lipoprotein (HDL), low density lipoprotein (LDL) and very low density lipoprotein (VLDL) were measured with an autoblood analyzer (Olympic, Japan).

[3] = tested on: conscious guinea pigs exposed to aerosol histamine; test: Protection against histamine-evoked asthma in conscious guinea pigs; format: in vivo, guinea pig; details: for Collapsed n: 8 animals; for Potency relative to racemic bambuterol: bronchospasmolytic / protective effect, hydrochloride; for % collapse / Latency time of collapse: dose-response, four hours before exposure
Description: Test methods: Guinea pigs (Dunki-Hartley strain, 190±30 g) were fasted overnight but given water ad libidum. The animals were restrained individually in a glass chamber and exposed to aerosol histamine generated by a nebulizer from a 0.2% aqueous solution of histamine under constant pressure at dose of 0.5 ml/min for a period of 15 sec. The animal was removed from the chamber, and its behavior was monitored. A sign of collapse and the latency time from exposure to collapse were recorded. Only the animals with latency time less than 120 sec, as an indication of sensitive to histamine, were chosen for later experiments. The animals chosen were allowed to recover completly by resting for 24 hours before experiments. Test compounds and racemic bambuterol hydrochloride were dissolved in saline.
Time course of the effect of test compounds: R-Bambuterol hydrochloride or racemic bambuterol hydrochloride at 2, 4 and 8 mg/kg, and vehicle alone, were administered to the guinea pigs orally via a stomach tube. Exposure of treated animals to aerosol histamine (as above) was done at 1, 4 and 24 hours after treatment. For each experimental group, there were a total of 8 animals with equal number of both sexes, and no repeated exposure was made for individual experimental animals.
Study of dose-response of test compounds: Four hours before the exposure to aerosol histamine, animals were randomized into groups (n=8, equal male and female), and given R-bambuterol hydrochloride or racemic bambuterol in doses of 0.25, 0.5, 1.0, 2.0, 4.0 and 8.0 mg/kg, and vehicle control, orally via a stomach tube. The numbers of collapsed animal as a result of asthmatic reaction to aerosol histamine were counted, and the latency times were recorded. Both of these parameters were used as quantitative measurements of the protective effects of the treatments on bronchospasm evoked by aerosol histamine.

β-2 receptor = details: Hartley and Middlemis 1971; cited from earlier work
[4] = 0.25 ng/ml active form in organ bath, 10^−5 M histamine pre-contraction
[5] = Tyl + 10 mg (10 mg/kg oral once a day for four days)

In the case of `CC(C)(C)NCC(O)c1cc(O)cc(O)c1` (racemic) [Active form of RS-bambuterol, racemic terbutaline], the “Percent of Relaxation” value [1, 4] is reported as 7.6 ± 0.8%, the “Percent of Relaxation” value ([1]; 0.50 ng/ml active form) is reported as 10.8 ± 2.1% and the “Percent of Relaxation” value ([1]; 0.75 ng/ml active form) is reported as 26.5 ± 3.4%. For the same compound, the “Percent of Relaxation” value ([1]; 1.00 ng/ml active form) was 39.6 ± 4.0% and the “Percent of Relaxation” value ([1]; 1.25 ng/ml active form) was 45.7 ± 6.7%.

With `CC(C)(C)NC[C@H](O)c1cc(O)cc(O)c1` [Active form of R-bambuterol, R-terbutaline] the “Percent of Relaxation” value [1, 4] was 12.4 ± 1.3%, the “Percent of Relaxation” value ([1]; 0.50 ng/ml active form) was 19.5 ± 2.2% and the “Percent of Relaxation” value ([1]; 0.75 ng/ml active form) was 43.7 ± 1.8%. The “Percent of Relaxation” value ([1]; 1.00 ng/ml active form) was 60.1 ± 5.7% and the “Percent of Relaxation” value ([1]; 1.25 ng/ml active form) was 75.6 ± 8.4%.

In the case of `CN(C)C(=O)Oc1cc(OC(=O)N(C)C)cc([C@@H](O)CNC(C)(C)C)c1` [R-bambuterol, R-Bambuterol hydrochloride], the “HR 20 min after Δ, % of Control” value (rats) is reported as 3.7%, the “Maxdp/dt 20 min after Δ, % of control” value (rats) is reported as 5.0% and the “% collapsed” value ([2]; 1 mg/kg oral) is reported as 63%. For the same compound, the Latency time ([2]; 1 mg/kg oral) was 193 ± 30 s, the Number collapsed ([2]; 1 mg/kg oral (n = 8), four hours before aerosol ovalbumin) was 5 and the “% collapsed” value ([2]; 4 mg/kg oral) was 25%. The Latency time ([2]; 4 mg/kg oral) was 293 ± 27 s, the Number collapsed ([2]; 4 mg/kg oral (n = 8)) was 2 and the “% collapsed” value ([2]; 8 mg/kg oral) was 0%. For the same compound, the Latency time ([2]; 8 mg/kg oral) was >360*# sec, the CHO lipid level (hyperlipidemia mice; Tyl + 5 mg) was 189 ± 83 mg/dL and the HDL lipid level (hyperlipidemia mice; Tyl + 5 mg) was 42 ± 27 mg/dL. It also gave an LDL lipid level (hyperlipidemia mice; Tyl + 5 mg) of 34 ± 15 mg/dL, a VLDL lipid level (hyperlipidemia mice; Tyl + 5 mg) of 50 ± 26 mg/dL and a TG lipid level (hyperlipidemia mice; Tyl + 5 mg (5 mg/kg oral once a day for four days)) of 323 ± 176 mg/dL. The CHO lipid level (hyperlipidemia mice; Tyl + 10 mg) was 119 ± 16 mg/dL, the HDL lipid level (hyperlipidemia mice; Tyl + 10 mg) was 53.3 ± 6.7 mg/dL and the LDL lipid level (hyperlipidemia mice; Tyl + 10 mg) was 29 ± 5 mg/dL. For the same compound, the VLDL lipid level (hyperlipidemia mice; Tyl + 10 mg) was 35 ± 7 mg/dL, the TG lipid level (hyperlipidemia mice; [5]) was 105 ± 18 mg/dL and the Collapsed % ([3]; 2 mg/kg oral, 1st Hour) was 50.0* %. For the same compound, the Latency ([3]; 2 mg/kg oral, 1st Hour) was 231 ± 70 s, the Collapsed n ([3]; 2 mg/kg oral, 1st Hour) was 4.0 and the Collapsed % ([3]; 2 mg/kg oral, 4th Hour) was 25.0* %. It also gave a Latency ([3]; 2 mg/kg oral, 4th Hour) of 295 ± 65 s, a Collapsed n ([3]; 2 mg/kg oral, 4th Hour) of 2.0 and a Collapsed % ([3]; 2 mg/kg oral, 24th Hour) of 62.5%. For the same compound, the Latency ([3]; 2 mg/kg oral, 24th Hour) was 202 ± 67 s, the Collapsed n ([3]; 2 mg/kg oral, 24th Hour) was 5.0 and the Collapsed % ([3]; 4 mg/kg oral, 1st Hour) was 37.5* %. For the same compound, the Latency ([3]; 4 mg/kg oral, 1st Hour) was 258 ± 71 s, the Collapsed n ([3]; 4 mg/kg oral, 1st Hour) was 3.0 and the Collapsed % ([3]; 4 mg/kg oral, 4th Hour) was 0.0* %. It also gave a Latency ([3]; 4 mg/kg oral, 4th Hour) of over 360 s, a Collapsed n ([3]; 4 mg/kg oral, 4th Hour) of 0.0 and a Collapsed % ([3]; 4 mg/kg oral, 24th Hour) of 50.0%. For the same compound, the Latency ([3]; 4 mg/kg oral, 24th Hour) was 242 ± 64 s, the Collapsed n ([3]; 4 mg/kg oral, 24th Hour) was 4.0 and the Collapsed % ([3]; 8 mg/kg oral, 1st Hour) was 25.0%. For the same compound, the Latency ([3]; 8 mg/kg oral, 1st Hour) was 299 ± 57 s, the Collapsed n ([3]; 8 mg/kg oral, 1st Hour) was 2.0 and the Collapsed % ([3]; 8 mg/kg oral, 4th Hour) was 0.0%. For the same compound, the Latency ([3]; 8 mg/kg oral, 4th Hour) was over 360 s, the Collapsed n ([3]; 8 mg/kg oral, 4th Hour) was 0.0 and the Collapsed % ([3]; 8 mg/kg oral, 24th Hour) was 37.5%. It also gave a Latency ([3]; 8 mg/kg oral, 24th Hour) of 256 ± 72 s, a Collapsed n ([3]; 8 mg/kg oral, 24th Hour) of 3.0 and an ED50 ([3]; Cavia porcellus, 4 h, oral, four hours before aerosol histamine, read-out: ED50 (protection against collapse)) of 0.91 mg/kg. The “Potency relative to racemic bambuterol” value ([3]; oral) was “about twice”, the “Potency relative to racemic bambuterol” value ([3]; oral, listed as R enantiomer of bambuterol) was “about twice” and the “Potency relative to racemic bambuterol” value ([3]; oral, listed as R-Bambuterol) was “about twice”. The “% collapse” value ([3]; 0.25 mg/kg oral) was 87.5%, the “Latency time of collapse” value ([3]; 0.25 mg/kg oral) was 110 s and the “% collapse” value ([3]; 0.5 mg/kg oral) was 75%. For the same compound, the “Latency time of collapse” value ([3]; 0.5 mg/kg oral) was 160 s, the “% collapse” value ([3]; 1 mg/kg oral) was 50% and the “Latency time of collapse” value ([3]; 1 mg/kg oral) was 209 s. For the same compound, the “% collapse” value ([3]; 2 mg/kg oral) was 25%, the “Latency time of collapse” value ([3]; 2 mg/kg oral) was 295 s and the “% collapse” value ([3]; 4 mg/kg oral) was 0%. The “Latency time of collapse” value ([3]; 4 mg/kg oral) was over 360 s, the “% collapse” value ([3]; 8 mg/kg oral) was 0% and the “Latency time of collapse” value ([3]; 8 mg/kg oral) was over 360 s. The “Onset of protective effects after administration” value ([3]; oral 2 to 8 mg/kg) was “one”, the “Time of maximum protective effects after administration” value ([3]; oral 2 to 8 mg/kg) was 4 h and the “Dose at which full protective effect was seen” value ([3]; oral, collapse after aerosol histamine) was 4 mg/kg. For the same compound, the “Dose at which maximum effects on latency were seen” value ([3]; oral, latency time to collapse) was 4 mg/kg.

For `CC(C)(C)NC[C@H](O)c1ccc(O)c(CO)c1` [R-enantiomer of albuterol, albuterol], the “Potency as β-2 receptor agonist relative to the S-enantiomer” value (β-2 receptor) is given as “approximately 80 times”.

For `CCC(C)(C)C(=O)O[C@H]1C[C@@H](C)C=C2C=C[C@H](C)[C@H](CC[C@@H]3C[C@@H](O)CC(=O)O3)[C@H]21` [simvastatin], the CHO lipid level (hyperlipidemia mice; Tyl + 10 mg) was 176 ± 64 mg/dL, the HDL lipid level (hyperlipidemia mice; Tyl + 10 mg) was 49 ± 16 mg/dL and the LDL lipid level (hyperlipidemia mice; Tyl + 10 mg) was 42 ± 11 mg/dL. For the same compound, the VLDL lipid level (hyperlipidemia mice; Tyl + 10 mg) was 85 ± 50 mg/dL and the TG lipid level (hyperlipidemia mice; [5]) was 311 ± 187 mg/dL.
